Each structure is given as a SMILES string. Bounds are passed on as bounds.

Chain of xanthine oxidase (P47989 whole entry, species assumed): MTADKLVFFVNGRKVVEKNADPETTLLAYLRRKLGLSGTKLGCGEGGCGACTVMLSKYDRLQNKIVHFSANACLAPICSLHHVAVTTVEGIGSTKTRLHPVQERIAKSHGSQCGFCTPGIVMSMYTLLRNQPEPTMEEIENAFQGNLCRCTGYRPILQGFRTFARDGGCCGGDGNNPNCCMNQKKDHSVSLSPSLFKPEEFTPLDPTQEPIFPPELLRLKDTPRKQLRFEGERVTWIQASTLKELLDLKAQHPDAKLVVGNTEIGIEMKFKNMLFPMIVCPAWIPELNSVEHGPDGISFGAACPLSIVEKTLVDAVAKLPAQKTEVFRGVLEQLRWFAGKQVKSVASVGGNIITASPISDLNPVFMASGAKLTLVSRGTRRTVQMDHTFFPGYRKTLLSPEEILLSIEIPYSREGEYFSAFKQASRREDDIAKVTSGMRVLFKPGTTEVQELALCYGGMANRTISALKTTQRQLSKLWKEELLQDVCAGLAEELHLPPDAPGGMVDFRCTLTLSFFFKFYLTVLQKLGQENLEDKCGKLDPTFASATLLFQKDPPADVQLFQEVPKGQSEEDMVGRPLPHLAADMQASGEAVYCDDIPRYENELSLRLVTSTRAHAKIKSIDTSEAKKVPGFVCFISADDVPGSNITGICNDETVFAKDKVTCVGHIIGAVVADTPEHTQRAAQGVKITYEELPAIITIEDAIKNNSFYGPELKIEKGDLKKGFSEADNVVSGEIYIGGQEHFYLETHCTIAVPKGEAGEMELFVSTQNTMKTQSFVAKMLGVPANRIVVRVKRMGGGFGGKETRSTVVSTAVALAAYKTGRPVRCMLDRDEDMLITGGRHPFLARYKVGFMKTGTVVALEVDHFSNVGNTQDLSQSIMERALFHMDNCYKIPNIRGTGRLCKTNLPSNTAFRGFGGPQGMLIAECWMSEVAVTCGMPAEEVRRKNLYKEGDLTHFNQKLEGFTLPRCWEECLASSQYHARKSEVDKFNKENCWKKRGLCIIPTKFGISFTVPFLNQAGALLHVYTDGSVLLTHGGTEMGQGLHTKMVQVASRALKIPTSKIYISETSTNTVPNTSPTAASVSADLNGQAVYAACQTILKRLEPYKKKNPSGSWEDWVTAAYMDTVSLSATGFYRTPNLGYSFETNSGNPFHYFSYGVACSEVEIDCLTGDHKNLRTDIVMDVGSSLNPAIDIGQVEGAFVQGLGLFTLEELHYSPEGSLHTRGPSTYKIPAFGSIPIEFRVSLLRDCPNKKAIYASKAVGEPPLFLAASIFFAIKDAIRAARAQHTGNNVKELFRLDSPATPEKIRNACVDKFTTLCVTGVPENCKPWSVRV

Tested on in one data set: not given
Experiment: not given
Settings: not given
In the case of `COc1c2occc2c(NS(=O)(=O)c2ccccc2)c2ccc(=O)oc12` [compound 5, N-(9-Methoxy-7-oxo-7H-furo[3,2-g]chromen-4-yl)benzenesulfonamide], the melting point (as a rule, the temperature, or range, at which the solid turns liquid) lay within 208 to 209 °C.

On to `CCC(=O)Nc1c2ccoc2c(OC)c2oc(=O)ccc12` [3j, N-(9-Methoxy-7-oxo-7H-furo[3,2-g]chromen-4-yl)propionamide], for which the melting point fell in the range of 233 to 234 °C.

For a further data set, the system named is T47-D. The data set can be described thus: MTT cytotoxicity, 48 h, without UVA. Particulars: Homo sapiens, T47D, light or radiation study; 48 h; without UVA; I = %inhibition lower than 50%; read-out: Cytotoxic activity T47-D %Inhibition. Type of data set: cell-based, human. On the procedure: Additionally, the cytotoxicity towards normal cells, human embryonal lung fibroblast cell MRC-5 was also assessed.
(§1) MDA-MB-231 (triple-negative breast cancer) was obtained from M.D. Anderson Cancer Center, Houston, TX, USA). T47-D (hormone-dependent breast carcinoma), SK-BR-3 (human HER2+ breast cancer), and MRC-5 (normal embryonic lung fibroblast) were obtained from the American Type Culture Collection (ATCC, Manassas, VA, USA).
(§2) The cytotoxic effect of tested compounds was evaluated in two breast cancer cell lines, MDA-MB-231 and T47-D. Number of survival cells after exposure to tested compounds for 48 h was determined by MTT assay, as previously described.
In the case of `CCC(=O)Nc1c2ccoc2c(OC)c2oc(=O)ccc12` [3j, N-(9-Methoxy-7-oxo-7H-furo[3,2-g]chromen-4-yl)propionamide], the inhibition at 50 µg/mL is 22%.

The same data set, now with this note: Homo sapiens, T47D, light or radiation study; hormone-dependent breast cancer; 48 h; without UVA; read-out: Cytotoxic activity T47-D IC50.
As for `COc1c2occc2c(NS(=O)(=O)c2ccccc2)c2ccc(=O)oc12` [compound 5, N-(9-Methoxy-7-oxo-7H-furo[3,2-g]chromen-4-yl)benzenesulfonamide], the IC50 (in general, the concentration that inhibits the measured activity by half) was determined as 87.9 ± 6.34 µM.

The same data set, now with this note: SI = IC50 for MRC-5/IC50 for T47-D.
`COc1c2occc2c(NS(=O)(=O)c2ccccc2)c2ccc(=O)oc12` [compound 5, N-(9-Methoxy-7-oxo-7H-furo[3,2-g]chromen-4-yl)benzenesulfonamide]: the “Selectivity Index (SI)” value is > 1.5.

Another data set relates to differentiated HL-60 cells. In words: Inhibition of TPA-induced superoxide anion radical generation (HL-60 Antioxidant). Type of data set: cell-based, human. The note with it: Homo sapiens, HL-60; screening concentration 100 µM; read-out: HL-60 Antiox. %Inh. An excerpt:
Inhibition of 12-O-tetradecanoylphorbol-13-acetate (TPA)-induced superoxide anion radical generation in differentiated HL-60 cells (HL-60 Antioxidant) TPA-induced superoxide anion radical formation was detected in differentiated HL-60 cells by photometric determination of cytochrome c reduction as previously described by Gerhäuser et al., 2003.ii Superoxide dismutase (SOD;15U) was a positive control. […]
In the case of `COc1c2occc2c(NS(=O)(=O)c2ccccc2)c2ccc(=O)oc12` [compound 5, N-(9-Methoxy-7-oxo-7H-furo[3,2-g]chromen-4-yl)benzenesulfonamide], the inhibition at 100 µM was determined as 32%.

Regarding `CCC(=O)Nc1c2ccoc2c(OC)c2oc(=O)ccc12` [3j, N-(9-Methoxy-7-oxo-7H-furo[3,2-g]chromen-4-yl)propionamide], the inhibition at 100 µM stood at 11%.

Another data set concerns SK-BR-3. In words: Dark and light-activated (UVA) cytotoxicity, MTT. Particulars: Homo sapiens, dark, HER2+ breast cancer. Type of data set: cell-based.
In the case of `CCC(=O)Nc1c2ccoc2c(OC)c2oc(=O)ccc12` [3j, N-(9-Methoxy-7-oxo-7H-furo[3,2-g]chromen-4-yl)propionamide], the IC50 was > 100 µM.

The subject of another data set is SK-BR-3 cells. The data set can be described thus: Cell morphology by light microscope. Particulars: 48 h; UVA 2.0 J cm^−2. Type of data set: cell-based, human. The procedure:
SK-BR-3 and MDA-MB-231 cells were seeded into 96-well cell culture plates at 5 × 10^3 cells/well and incubated for 24 h at 37 °C under 5% CO2. After that, the cells were treated with 50 μM of psoralen derivatives in DMEM with 10% FBS and the cells were continued incubation for another 4 h. […] After incubation, the cell was treated with methylthiazolyldiphenyl-tetrazolium bromide (MTT reagent 200 μL, 0.5 mg mL^−1, Sigma-Aldrich) for 2 h. After reagent removal, DMSO was added to dissolve the formazan product and the cell viabilities were determined through UV–Vis absorption of the resulting formazan at wavelength 560 nm using a microplate reader (BMG Labtech/SPECTROstar Nano). The cell morphology images were captured by using a light microscope (Microscope Nikon, inverted digital) at 20X magnification prior to treating with MTT reagent.
As to `CCC(=O)Nc1c2ccoc2c(OC)c2oc(=O)ccc12` [3j, N-(9-Methoxy-7-oxo-7H-furo[3,2-g]chromen-4-yl)propionamide], the “morphology of SK-BR-3 cells under light activation” value is given as “significantly changed”.

Staying with this data set, now noted: 48 h; dark.
Turning to `CCC(=O)Nc1c2ccoc2c(OC)c2oc(=O)ccc12` [3j, N-(9-Methoxy-7-oxo-7H-furo[3,2-g]chromen-4-yl)propionamide], the “morphology of SK-BR-3 cells under dark condition” value is on record as “maintained morphology of intact cells”.

Another data set has as its target T1, aromatase (CYP19) (Homo sapiens, UniProt P11511).
T1 sequence (P11511 1-503): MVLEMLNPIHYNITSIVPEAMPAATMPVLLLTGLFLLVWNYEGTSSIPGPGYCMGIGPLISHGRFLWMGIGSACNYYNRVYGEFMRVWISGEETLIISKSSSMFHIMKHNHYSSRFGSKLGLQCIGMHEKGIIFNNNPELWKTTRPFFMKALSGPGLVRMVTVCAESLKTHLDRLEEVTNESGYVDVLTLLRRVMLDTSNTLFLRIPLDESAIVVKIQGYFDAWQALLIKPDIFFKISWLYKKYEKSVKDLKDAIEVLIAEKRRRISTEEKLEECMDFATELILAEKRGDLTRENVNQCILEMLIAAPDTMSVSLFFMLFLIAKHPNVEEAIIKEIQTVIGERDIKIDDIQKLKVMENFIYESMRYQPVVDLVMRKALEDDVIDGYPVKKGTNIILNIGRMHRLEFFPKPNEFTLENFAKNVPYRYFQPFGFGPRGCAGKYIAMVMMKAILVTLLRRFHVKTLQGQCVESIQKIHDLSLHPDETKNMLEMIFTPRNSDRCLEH
The data set can be described thus: Inhibition of aromatase (AIA). Type of data set: biochemical. The note with it: at 12.5 µM; I = %inhibition lower than 50%; read-out: Aromatase inhibitory activity %Inhibition. The procedure: Estrogens are the critical risk factor for breast cancer initiation and progression and the aromatase enzyme involves in the final step conversion of androgens to estrogens[21],[22]. […] In this study, the synthesized psoralen derivatives were also tested for aromatase inhibitory activity (AIA) which is considered to be one of chemopreventive mechanisms for hormone dependent breast cancer.
Inhibition of the aromatase was performed using the method designed by Stresser et al.[39].
Take `COc1c2occc2c(NS(=O)(=O)c2ccccc2)c2ccc(=O)oc12` [compound 5, N-(9-Methoxy-7-oxo-7H-furo[3,2-g]chromen-4-yl)benzenesulfonamide]: the inhibition at 12.5 µM turned out to be 33%.

For the molecule `CCC(=O)Nc1c2ccoc2c(OC)c2oc(=O)ccc12` [3j, N-(9-Methoxy-7-oxo-7H-furo[3,2-g]chromen-4-yl)propionamide], the inhibition at 12.5 µM was 8%.

In a further data set the test system is MDA-MB-231. In words: Dark and light-activated (UVA) cytotoxicity, MTT. Particulars: Homo sapiens, MDA-MB-231, light or radiation study; irradiation with UVA (2.0 J cm^−2); HER2− breast cancer. It counts as cell-based. On the procedure: (§3) The selected compounds were screened for their IC50 values against both HER2+ breast cancer (SK-BR-3), and HER2− breast cancer (MDA-MB-231) in both dark and light-activated conditions (Table 2). Additionally, a negative control study was also performed with SK-BR-3 and MDA-MB-231 cells in the absence of tested compound under UVA irradiation (See Fig S7., Supporting Information).
(§4) SK-BR-3 and MDA-MB-231 cells were seeded into 96-well cell culture plates at 5 × 10^3 cells/well and incubated for 24 h at 37 °C under 5% CO2. After that, the cells were treated with 50 μM of psoralen derivatives in DMEM with 10% FBS and the cells were continued incubation for another 4 h. After incubation, the cells were washed with PBS (3 times) and then irradiated by a 365 nm lamp with the light intensity of 2.0 J cm^−2 for 12.5 min before re-incubation for another 72 h. After incubation, the cell was treated with methylthiazolyldiphenyl-tetrazolium bromide (MTT reagent 200 μL, 0.5 mg mL^−1, Sigma-Aldrich) for 2 h. After reagent removal, DMSO was added to dissolve the formazan product and the cell viabilities were determined through UV–Vis absorption of the resulting formazan at wavelength 560 nm using a microplate reader (BMG Labtech/SPECTROstar Nano). The cell morphology images were captured by using a light microscope (Microscope Nikon, inverted digital) at 20X magnification prior to treating with MTT reagent.
Take `CCC(=O)Nc1c2ccoc2c(OC)c2oc(=O)ccc12` [3j, N-(9-Methoxy-7-oxo-7H-furo[3,2-g]chromen-4-yl)propionamide]: the IC50 was > 100 µM.

Tested on in the next data set: not listed separately
The data set can be described thus: Scavenging of diphenyl-picryl-hydrazyl radicals (DPPH). Particulars: screening concentration 250 µM. An excerpt: 1. Chemoprevention activity
(The DPPH test is a chemical assay of radical scavenging.)
`COc1c2occc2c(NS(=O)(=O)c2ccccc2)c2ccc(=O)oc12` [compound 5, N-(9-Methoxy-7-oxo-7H-furo[3,2-g]chromen-4-yl)benzenesulfonamide]: the “DPPH %Inh” value is given as 8%.

Regarding `CCC(=O)Nc1c2ccoc2c(OC)c2oc(=O)ccc12` [3j, N-(9-Methoxy-7-oxo-7H-furo[3,2-g]chromen-4-yl)propionamide], the “DPPH %Inh” value is 2%.

The next data set has as its system SK-BR-3. In words: Dark and light-activated (UVA) cytotoxicity, MTT. Type of data set: cell-based, human. Particulars: Homo sapiens, SK-BR-3, light or radiation study; irradiation with UVA (2.0 J cm^−2); HER2+ breast cancer. On the procedure:
as §3, §4
The molecule `CCC(=O)Nc1c2ccoc2c(OC)c2oc(=O)ccc12` [3j, N-(9-Methoxy-7-oxo-7H-furo[3,2-g]chromen-4-yl)propionamide] showed an IC50 of 3.05 ± 1.02 µM.

Another data set relates to MDA-MB-231. In words: Dark and light-activated (UVA) cytotoxicity, MTT. It counts as cell-based. The note with it: Homo sapiens, dark, HER2− breast cancer.
Turning to `CCC(=O)Nc1c2ccoc2c(OC)c2oc(=O)ccc12` [3j, N-(9-Methoxy-7-oxo-7H-furo[3,2-g]chromen-4-yl)propionamide], the IC50 is > 100 µM.

The test system of a further data set is MDA-MB-231. The data set can be described thus: MTT cytotoxicity, 48 h, without UVA. It counts as cell-based. The note with it: Homo sapiens, MDA-MB-231, light or radiation study, I = %inhibition lower than 50%, read-out: Cytotoxic activity MDA-MB-231 %Inhibition. On the procedure: as §1, §2
For `COc1c2occc2c(NS(=O)(=O)c2ccccc2)c2ccc(=O)oc12` [compound 5, N-(9-Methoxy-7-oxo-7H-furo[3,2-g]chromen-4-yl)benzenesulfonamide], the inhibition at 50 µg/mL was 36%.

Consider `CCC(=O)Nc1c2ccoc2c(OC)c2oc(=O)ccc12` [3j, N-(9-Methoxy-7-oxo-7H-furo[3,2-g]chromen-4-yl)propionamide], for which the inhibition at 50 µg/mL was found to be 3%.

Target in the next data set: not listed separately
In words: Inhibition of superoxide radical formation by xanthine/xanthine oxidase (XXO). It counts as biochemical. Particulars: read-out: XXO IC50.
Description: 1. […]
Regarding `COc1c2occc2c(NS(=O)(=O)c2ccccc2)c2ccc(=O)oc12` [compound 5, N-(9-Methoxy-7-oxo-7H-furo[3,2-g]chromen-4-yl)benzenesulfonamide], the 50% inhibitory concentration (IC50) was determined as 90.7 µM.

Regarding `CCC(=O)Nc1c2ccoc2c(OC)c2oc(=O)ccc12` [3j, N-(9-Methoxy-7-oxo-7H-furo[3,2-g]chromen-4-yl)propionamide], the IC50 was 187 µM.

A further data set has as its target xanthine oxidase (Homo sapiens, UniProt P47989). In words: Inhibition of xanthine oxidase (IXO). Type of data set: biochemical. Particulars: screening concentration 500 µM; read-out: IXO %Inh. On the procedure: 1. […]
Inhibition of xanthine oxidase (IXO)
Xanthine oxidase activity was determined by quantifying the amount of uric acid produced
from xanthine. […]
As for `COc1c2occc2c(NS(=O)(=O)c2ccccc2)c2ccc(=O)oc12` [compound 5, N-(9-Methoxy-7-oxo-7H-furo[3,2-g]chromen-4-yl)benzenesulfonamide], the inhibition at 500 µM is 21%.

Take `CCC(=O)Nc1c2ccoc2c(OC)c2oc(=O)ccc12` [3j, N-(9-Methoxy-7-oxo-7H-furo[3,2-g]chromen-4-yl)propionamide]: the inhibition at 500 µM came out at 29%.

(Values after PMC9356065, “Novel psoralen derivatives as anti-breast cancer agents and their light-activated cytotoxicity against HER2 positive breast cancer cells” (Scientific Reports, 2022).)
